We go through 5 molecules from US20240279278A1, “NMU RECEPTOR 2 AGONISTS” (Boehringer Ingelheim International GmbH, priority 2023, published 2024).

Holding throughout (format): cell-based
The target of assay [1] is T1, human NMUR1 receptor (Homo sapiens, UniProt Q9HB89).
T1 construct: expressed in transfected cells; host or cells: CHO-K1
T1 sequence (Q9HB89 1-426): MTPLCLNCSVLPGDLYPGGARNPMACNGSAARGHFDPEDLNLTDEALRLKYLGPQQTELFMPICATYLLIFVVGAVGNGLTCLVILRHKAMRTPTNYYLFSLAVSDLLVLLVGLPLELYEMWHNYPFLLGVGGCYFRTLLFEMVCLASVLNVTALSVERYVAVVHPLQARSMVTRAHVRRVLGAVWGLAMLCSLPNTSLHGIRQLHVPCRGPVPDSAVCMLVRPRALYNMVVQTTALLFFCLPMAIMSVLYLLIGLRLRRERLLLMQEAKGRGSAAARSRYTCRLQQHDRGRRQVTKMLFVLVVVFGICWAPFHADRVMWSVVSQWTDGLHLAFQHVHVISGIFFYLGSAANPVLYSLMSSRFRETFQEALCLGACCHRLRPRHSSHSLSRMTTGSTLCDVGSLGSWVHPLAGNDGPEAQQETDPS
As to the kind of experiment: IP1 Gq HTRF assay, activation of human NMUR1 in buffer. To be noted: CHO-K1 cells expressing human NMUR1, stimulation buffer with 0.1% BSA; read-out: EC50 (hNMUR1) buffer. From the text: (§1) Example 3: IP1 Gq HTRF Assay Activation of Human NMUR2 or Human NMUR1 in Buffer Application of the Homogenous Time Resolved Fluorescence (HTRF) technology optimized for Gq coupled receptors has been described in detail in the Cisbio IP-One Gq kit manual. In brief, a FRET signal (FRET: fluorescence resonance energy transfer) is generated between the donor label of an IP-One antibody (anti-IP1-Tb) and the acceptor label of a tagged IP-One (IP1-d2). Agonism of a Gq coupled receptor increases intracellular IP-One, which competes with labeled IP-One and leads to a reduction of the FRET signal. Frozen stocks of CHO-K1 cells stably expressing the human NMUR1 or NMUR2 receptor were thawed and 5000 cells were seeded in culture medium (HAM'S F12, 10% FCS) into each well of a 384-well assay plate. After seeding, cells were incubated for 24 h in a humidified incubator at 37° C. and 5% CO2. Next, cells were washed once with 50 μL of wash buffer (20 mM Hepes, 1×HBSS, pH 7.4), followed by addition of either 10 μL of stimulation buffer (20 mM Hepes, 1×HBSS, 50 mM LiCl, 0.1% BSA, pH 7.4). Peptide agonists to be tested were dissolved in 100% DMSO and pre-diluted in stimulation buffer at a suitable concentration range for an 8 pt dose-response curve. 5 μL of peptide pre-dilution were then added to each well, followed by another 5 μL of stimulation buffer to give a final concentration of 1% DMSO. Samples were subsequently incubated for 1 hour in a humidified incubator at 37° C. After addition of 5 μL each of IP1-d2 and anti-IP1-Tb, samples were incubated for another 1 hour at room temperature and FRET signals (ratio 665 nm/620 nm) were measured. EC50 values were calculated by nonlinear regression using a 4-parameter sigmoidal curve fit.
On the technique in general: In TR-FRET formats the signal depends on donor and acceptor labels being close together.

Assay [2] deals with T2, human NMUR2 receptor (Homo sapiens, UniProt Q9GZQ4). As to the kind of experiment: IP1 Gq HTRF assay, activation of human NMUR2 in human plasma. Also noted: expressed in transfected cells; host or cells: CHO-K1. To be noted: CHO-K1 cells expressing human NMUR2, 100% human plasma; read-out: EC50 (hNMUR2) human plasma. From the text:
Example 4: IP1 Gq HTRF Assay Activation of Human NMUR2 in Human Plasma Application of the Homogenous Time Resolved Fluorescence (HTRF) technology optimized for Gq coupled receptors has been described in detail in the Cisbio IP-One Gq kit manual. In brief, a FRET signal is generated between the donor label of an IP-One antibody (anti-IP1-Tb) and the acceptor label of a tagged IP-One (IP1-d2). Agonism of a Gq coupled receptor increases intracellular IP-One, which competes with labeled IP-One and leads to a reduction of the FRET signal. Frozen stocks of CHO-K1 cells stably expressing the human NMUR1 receptor or human NMUR2 receptor were thawed and 5000 cells were seeded in culture medium (HAM'S F12, 10% FCS) into each well of a 384-well assay plate. After seeding, cells were incubated for 24 h in a humidified incubator at 37° C. and 5% CO2. Next, cells were washed once with […] of wash buffer (20 mM Hepes, 1×HBSS, pH 7.4), followed by addition of […] (100% human plasma, 50 mM LiCl). Peptide agonists to be tested were dissolved in 100% DMSO and pre-diluted in plasma at a suitable concentration range for an 8 pt dose-response curve. 5 μL of peptide pre-dilution were then added to each well, followed by another 5 μL of plasma to give a final concentration of 1% DMSO. Samples were subsequently incubated for 1 hour in a humidified incubator at 37° C. The plasma solution was replaced by 20 μL of stimulation buffer. After addition of 5 μL each of IP1-d2 and anti-IP1-Tb, samples were incubated for another 1 hour at room temperature and FRET signals (ratio 665 nm/620 nm) were measured. EC50 values were calculated by nonlinear regression using a 4-parameter sigmoidal curve fit.

Assay [3] has as its target T2, human NMUR2 receptor. As to the kind of experiment: IP1 Gq HTRF assay, activation of human NMUR2 in buffer. Also noted: expressed in transfected cells; host or cells: CHO-K1. To be noted: CHO-K1 cells expressing human NMUR2, stimulation buffer with 0.1% BSA; read-out: EC50 (hNMUR2) buffer.
Text: as §1

Residues, ends and D or L forms follow the SMILES beside them.

T2 sequence (Q9GZQ4 whole entry): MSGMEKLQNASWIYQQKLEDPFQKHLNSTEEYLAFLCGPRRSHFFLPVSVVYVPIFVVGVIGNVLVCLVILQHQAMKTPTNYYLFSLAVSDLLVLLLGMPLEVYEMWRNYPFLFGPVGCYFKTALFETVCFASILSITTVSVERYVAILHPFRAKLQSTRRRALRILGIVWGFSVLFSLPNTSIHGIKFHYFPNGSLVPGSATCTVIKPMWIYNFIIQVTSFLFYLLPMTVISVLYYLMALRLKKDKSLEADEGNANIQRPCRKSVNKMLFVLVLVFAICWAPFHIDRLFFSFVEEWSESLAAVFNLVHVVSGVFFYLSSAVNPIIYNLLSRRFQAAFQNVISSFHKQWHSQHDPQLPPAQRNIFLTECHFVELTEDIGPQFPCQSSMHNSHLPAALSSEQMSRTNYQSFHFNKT

In general, EC50 refers to the concentration that produces a half-maximal response. For `CCCC[C@H](NC(=O)[C@H](CC(C)C)N(C)C(=O)[C@H](Cc1ccccc1)NC(=O)[C@H](Cc1ccc(O)cc1)NC(=O)CN1CCN(C(=O)CN(C)C(=O)CN(C)C(=O)CN(C)C(=O)CN(C)C(=O)CN(C)C(=O)CN(C)C(=O)CN(C)C(=O)CN(C)C(=O)CN(C)C(=O)CN(C)C(=O)CN(C)C(=O)CN(C)C(=O)CN(C)C(=O)CN(C)C(=O)CN(C)C(=O)CC[C@H](NC(=O)CC[C@H](NC(=O)CC[C@H](NC(=O)CCCCCCCCCCCCCCCCC(=O)O)C(=O)O)C(=O)O)C(=O)O)CC1)C(=O)N[C@@H](CCN)C(=O)N1CCC[C@H]1C(=O)N[C@@H](CCCNC(=N)N)C(=O)NCC(N)=O` [Compound 76, C18DA-gGlu3-Sar15-PipAc-Tyr-Phe-NMeLeu-Nle-Dbu-Pro-Arg-Gly-NH2] (HELM PEPTIDE1{[O=C(O)CCCCCCCCCCCCCCCCC(=O)[*:2]].[gGlu].[gGlu].[gGlu].[Sar].[Sar].[Sar].[Sar].[Sar].[Sar].[Sar].[Sar].[Sar].[Sar].[Sar].[Sar].[Sar].[Sar].[Sar].[O=C(CN1CCN([*:1])CC1)[*:2]].Y.F.[meL].[Nle].[Dab].P.R.G.[am]}$$$$V2.0), the EC50 in assay [1] was found to be 1100 nM; in assay [2], 6.2 nM; in assay [3], 1.1 nM.

In the case of `CCCC[C@H](NC(=O)[C@H](CC(C)C)N(C)C(=O)[C@H](Cc1ccccc1)NC(=O)[C@H](Cc1ccc(O)cc1)NC(=O)CN1CCN(CCNC(=O)CN(C)C(=O)CN(C)C(=O)CN(C)C(=O)CN(C)C(=O)CN(C)C(=O)CN(C)C(=O)CN(C)C(=O)CN(C)C(=O)CN(C)C(=O)CN(C)C(=O)CN(C)C(=O)CN(C)C(=O)CN(C)C(=O)CN(C)C(=O)CN(C)C(=O)CC[C@H](NC(=O)CC[C@H](NC(=O)CC[C@H](NC(=O)CC[C@H](NC(=O)CCCCCCCCCCCCCCCCCCC(=O)O)C(=O)O)C(=O)O)C(=O)O)C(=O)O)CC1)C(=O)N[C@@H](CCN)C(=O)N(C)[C@@H](C)C(=O)N[C@@H](CCCNC(=N)N)C(=O)NCC(N)=O` [Compound 16, C20DA-gGlu4-Sar15-AEPipAc-Tyr-Phe-NMeLeu-Nle-Dbu-NMeAla-Arg-Gly-NH2] (HELM PEPTIDE1{[O=C(O)CCCCCCCCCCCCCCCCCCC(=O)[*:2]].[gGlu].[gGlu].[gGlu].[gGlu].[Sar].[Sar].[Sar].[Sar].[Sar].[Sar].[Sar].[Sar].[Sar].[Sar].[Sar].[Sar].[Sar].[Sar].[Sar].[O=C(CN1CCN(CCN[*:1])CC1)[*:2]].Y.F.[meL].[Nle].[Dab].[meA].R.G.[am]}$$$$V2.0), the figures for the EC50 in assay [1], in assay [2] and in assay [3] were > 1000 nM, 11 nM and 3.3 nM, respectively.

As to `CCCC[C@H](NC(=O)[C@H](CC(C)C)N(C)C(=O)[C@H](Cc1ccccc1)NC(=O)[C@H](Cc1ccc(O)cc1)NC(=O)CN1CCN(CCNC(=O)CN(C)C(=O)CN(C)C(=O)CN(C)C(=O)CN(C)C(=O)CN(C)C(=O)CN(C)C(=O)CN(C)C(=O)CN(C)C(=O)CN(C)C(=O)CN(C)C(=O)CN(C)C(=O)CN(C)C(=O)CN(C)C(=O)CN(C)C(=O)CN(C)C(=O)CC[C@H](NC(=O)CC[C@H](NC(=O)CC[C@H](NC(=O)CC[C@H](NC(=O)CCCCCCCCCCCCCCCCCCC(=O)O)C(=O)O)C(=O)O)C(=O)O)C(=O)O)CC1)C(=O)N[C@@H](CCCN)C(=O)N(C)[C@@H](C)C(=O)N[C@@H](CCCNC(=N)N)C(=O)NCC(N)=O` [Compound 14, C20DA-gGlu4-Sar15-AEPipAc-Tyr-Phe-NMeLeu-Nle-Orn-NMeAla-Arg-Gly-NH2] (HELM PEPTIDE1{[O=C(O)CCCCCCCCCCCCCCCCCCC(=O)[*:2]].[gGlu].[gGlu].[gGlu].[gGlu].[Sar].[Sar].[Sar].[Sar].[Sar].[Sar].[Sar].[Sar].[Sar].[Sar].[Sar].[Sar].[Sar].[Sar].[Sar].[O=C(CN1CCN(CCN[*:1])CC1)[*:2]].Y.F.[meL].[Nle].[Orn].[meA].R.G.[am]}$$$$V2.0), the EC50 in assay [1] came to 1400 nM; in assay [2], 10.3 nM; in assay [3], 2.9 nM.

Regarding `CCCC[C@H](NC(=O)[C@H](CC(C)C)N(C)C(=O)[C@H](Cc1ccccc1)NC(=O)[C@H](Cc1ccc(O)cc1)NC(=O)CN1CCN(CCNC(=O)CN(C)C(=O)CN(C)C(=O)CN(C)C(=O)CN(C)C(=O)CN(C)C(=O)CN(C)C(=O)CN(C)C(=O)CN(C)C(=O)CN(C)C(=O)CC[C@H](NC(=O)CC[C@H](NC(=O)CCCCCCCCCCCCCCCCC(=O)O)C(=O)O)C(=O)O)CC1)C(=O)N[C@@H](CCCNC(=N)N)C(=O)N1CCC[C@H]1C(=O)N[C@@H](CCCNC(=N)N)C(=O)NCC(N)=O` [Compound 67, C18DA-gGlu2-Sar9-AEPipAc-Tyr-Phe-NMeLeu-Nle-Arg-Pro-Arg-Gly-NH2] (HELM PEPTIDE1{[O=C(O)CCCCCCCCCCCCCCCCC(=O)[*:2]].[gGlu].[gGlu].[Sar].[Sar].[Sar].[Sar].[Sar].[Sar].[Sar].[Sar].[Sar].[O=C(CN1CCN(CCN[*:1])CC1)[*:2]].Y.F.[meL].[Nle].R.P.R.G.[am]}$$$$V2.0), the values for the EC50 in assay [2] and in assay [3] were 9.9 nM and 0.9 nM, respectively.

On to `CCCC[C@H](NC(=O)[C@H](CC(C)C)N(C)C(=O)[C@H](Cc1ccccc1)NC(=O)[C@H](Cc1ccc(O)cc1)NC(=O)CN1CCN(CCNC(=O)CN(C)C(=O)CN(C)C(=O)CN(C)C(=O)CN(C)C(=O)CN(C)C(=O)CN(C)C(=O)CN(C)C(=O)CN(C)C(=O)CN(C)C(=O)CN(C)C(=O)CN(C)C(=O)CN(C)C(=O)CC[C@H](NC(=O)CC[C@H](NC(=O)CC[C@H](NC(=O)CC[C@H](NC(=O)CCCCCCCCCCCCCCCCCCC(=O)O)C(=O)O)C(=O)O)C(=O)O)C(=O)O)CC1)C(=O)N[C@@H](CCN)C(=O)N1CCC[C@H]1C(=O)N[C@@H](CCCNC(=N)N)C(=O)NCC(N)=O` [Compound 15, C20DA-gGlu4-Sar12-AEPipAc-Tyr-Phe-NMeLeu-Nle-Dbu-Pro-Arg-Gly-NH2], for which the figures for the EC50 in assay [2] and in assay [3] were 10.8 nM and 3.2 nM, respectively.
